Reference: patent US7285619B2, “Echinocandin derivatives, their method of preparation and their application as anti-fungal agents” (Aventis Pharma S.A., priority 1997, dated 2007)

System: glucane Synthesis of Candida albicans
Assay: Inhibition of the glucane synthesis of Candida albicans (membrane preparation, 14C-UDP glucose incorporation)
Assay type: biochemical
Conditions: purified Candida albicans membranes, 25° C., 1 hour, result in words
Protocol: Tablets have been prepared containing: • The product of example 14 . . . 150 mg • Excipient q.s.p. . . . 1 g (Detail of the excipient: starch, talc, magnesium stearate). Pharmacological Study A—Inhibition of the glucane Synthesis of Candida albicans.
The membranes of Candida albicans are purified according to the process described by Tang and al Antimicrob. Agents Chemother 35, 99-103, 1991. 22.5 μg of membrane proteins are incubated in a mixture of 2 Mm of 14C-UDP glucose (specific activity=0.34 mCi./mmol, 50 μg of α-amylase, 1 Mm of dithiotreitol (DTT), 1 Mm EDTA, 100 Mm NaF, 7 μM of GTP-γ-S, 1M of sucrose and 5 oMm OF Ttris-HCL (pH 7.8) in a volume of 100 μl. The medium is incubated at 25° C. for 1 hour and the reaction terminated by addition of TCA to a final concentration of 5%. The reaction medium is transferred onto a pre-humidified glass fibre filter. The filter is washed, dried and its radioactivity is counted.
Mulundocandin is used as positive control.
The control of the medium is carried out with the same quantity of DMSO 1%.

Compound	activity in the test of inhibition of the glucane synthesis of Candida albicans
Trifluoroacetate of 1-[4-[(2-aminoethyl)amino]-N2-(12-methyl-1-oxotetradecyl)-L-ornithine]4-[4-(4-hydroxyphenyl)-L-threonine]-5-L Serine Echinocandin B (Isomer A and Isomer B) [Example 9]	good activity
(±) Trifluoroacetate of 1-[4-[(aminoiminomethyl) Hydrazono]-N2-(12-methyl-1-oxotetradecyl)-L-ornithine]4-[4-(4-hydroxyphenyl)-L-threonine]-5-L Serine Echinocandin B [Example 11]	good activity
CCCCCCCCOc1ccc(-c2ccc(C(=O)NC3CC(NCCN)CNC(=O)C4C(O)C(C)CN4C(=O)C(CO)NC(=O)C(C(O)Cc4ccc(O)cc4)NC(=O)C4CC(O)CN4C(=O)C(C(C)O)NC3=O)cc2)cc1.O=C(O)C(F)(F)F (single isomer, unassigned; isomer a) [Example 14, Trifluoroacetate of 1-[4-[(2-aminoethyl)amino]N2-[[4′-(octyloxy)[1.1′-biphenyl]-4-yl]carbonyl]-L-ornithine]4-[4-(4-hydroxyphenyl)-L-threonine]-5-L Serine Echinocandin B (Isomer A)]	good activity
